Data: PMC9317316, “Synthesis and Evaluation of Some New 4H-Pyran Derivatives as Antioxidant, Antibacterial and Anti-HCT-116 Cells of CRC, with Molecular Docking, Antiproliferative, Apoptotic and ADME Investigations” (Pharmaceuticals, 2022)
Several values for one entry are separate records, joined by “and”; a condition that tells them apart may be missing. Identical values can stand only once. Like-named read-outs stand apart in the source and are kept apart here.

How the values were obtained:
[1] = DPPH radical scavenging assay; settings: for IC50: 0.03 to 1 mg/mL, 1 h, mean ± SD, triplicate, read-out: IC50 (mM) for DPPH Scavenging Potency
Procedure: The IC50 values for DPPH were calculated from the plot of the scavenging effect against the compound concentration.
The compounds’ capacities to scavenge the stable radical 1,1 diphenyl-2-picrylhydrazyl (DPPH) formed in solution by donation of a hydrogen atom or an electron was investigated according to the method described by Bersuder and coworkers. Due to the fact that the initial blue/purple solution of diphenyl picrylhydrazine changes to yellow in the presence of compounds with a capacity to scavenge DPPH free radicals, this reaction is used as a measure of a compound’s ability to scavenge any free radical. Briefly, a 0.5 mL volume of DPPH ethanolic solution was mixed with an equal volume of each sample concentration (0.03 to 1 mg/mL), shaken strongly and incubated at room temperature for 1 h in darkness. The absorbance of the residual DPPH radicals was measured at 519 nm and compared to that of the control (without the tested compound). DPPH radical scavenging was calculated using the following formula: Scavenging effect (%) = (1 − Acompound/AControl) × 100, where Acompound and Acontrol are the absorbances of the tested compound and of the control, respectively. A plot of the scavenging effect (%) versus the sample concentration was also performed to determine the compound concentration providing 50% inhibition (IC50).

[2] = Reducing power assay (FRAC, Fe3+ to Fe2+); settings: 0-1 mg/mL, absorbance 700 nm
Procedure: Secondly, FRAC was determined over the concentration range of 0.0−1 mg/mL via monitoring Fe^3+−Fe^2+ transformation in the presence of the studied compounds and the reference antioxidant BHT to estimate the values of efficient concentration (EC50), expressed in mM.
The reducing power of the studied compounds was assessed according to Oyaizu’s method. Briefly, different concentrations (ranging from 0 to 1 mg/mL) of each tested compound were first mixed with 1 mL of 0.2 M sodium phosphate buffer (pH 6.6) and 1 mL of 1% potassium ferricyanide (K3Fe(CN)6) and incubated at 50 °C for 20 min. After the addition of 1.25 mL of 20% trichloroacetic acid (TCA), the mixture was centrifuged for 10 min at 3000 rpm and the upper layer solution was then mixed with 0.5 mL of 0.1% fresh ferric chloride and an equal volume of deionized water. Finally, the absorption of the resulting mixture was measured at 700 nm using a UV spectrophotometer against distilled water as the blank, while butylated hydroxytoluene (BHT) was used as a positive control. The sample ferric reducing power capability was indicated by increased absorbance.

B. cereus (ATCC 14579) [3] = experiment: Antibacterial agar diffusion method (inhibition zone); type: cell-based
Procedure: (§1) The results for the in vitro antibacterial properties of the synthesized compounds against five Gram-positive and four Gram-negative human-pathogenic strains, which were assessed by both the agar diffusion method (based on inhibition zone (IZ)) and the broth dilution bioassay (for the determination of the half-maximal inhibitory concentration (IC50) values), using ampicillin as the reference antibiotic drug, are shown in Table 2 and Table 3.
(§2) The antibacterial activity of all synthesized compounds was evaluated against the Gram-negative strains E. coli (ATCC 25966), K. pneumonia (ATCC 700603), P. aeruginosa (ATCC 27853) and S. enteric (ATCC 43972) and against the Gram-positive strains B. cereus (ATCC 14579), B. subtilis (ATCC 6633), E. faecalis (ATCC 29122), S. aureus (ATCC 25923) and S. epidermidis (ATCC 14990), using the agar diffusion method through measuring the appearance of the inhibition zone on the surface of the top agar, as reported by Berghe and Vlietinck. Ampicillin (10 µg/well) was used as the positive reference standard. Bacterial viability was also investigated by determining the colony-forming ability (CFU) of bacteria incubated at different time intervals without or with appropriate amounts of the compound, which were mixed with 2 ×10^7 CFU/mL in sterile BHI and incubated under shaking for 60 min at 37 °C. Samples were serially diluted into sterile BHI, streaked onto media agar plates and incubated for 24 h at 37 °C. The antibacterial potency of the tested compounds was expressed as the residual number of CFUs with reference to the initial inoculums. The results presented as the half-maximal (50 %) inhibitory concentration (IC50) values are the means of three different measurements.

B. subtilis (ATCC 6633) [4] = experiment: as above; type: cell-based
Procedure: as §1, §2

E. coli (ATCC 25966) [5] = experiment: as above; type: cell-based; settings: E. coil (ATCC 25966)
Procedure: as §1, §2

E. faecalis (ATCC 29122) [6] = experiment: as above; type: cell-based
Procedure: as §1, §2

[7] = test system: K. pneumonia (ATCC 700603); experiment: as above; type: cell-based
Procedure: as §1, §2

[8] = test system: P. aeruginosa (ATCC 27853); experiment: as above; type: cell-based
Procedure: as §1, §2

S. aureus (ATCC 25923) [9] = experiment: as above; type: cell-based
Procedure: as §1, §2

[10] = test system: S. epidermidis (ATCC 14990); experiment: as above; type: cell-based
Procedure: as §1, §2

B. cereus (ATCC 14579) [11] = experiment: Antibacterial viability (CFU) assay, IC50; type: cell-based; settings: Bacillus cereus, ATCC14579
Procedure: as §1, §2

B. subtilis (ATCC 6633) [12] = experiment: Antibacterial viability (CFU) assay, IC50; type: cell-based
Procedure: as §1, §2

E. coli (ATCC 25966) [13] = experiment: Antibacterial viability (CFU) assay, IC50; type: cell-based; settings: Escherichia coli, ATCC25966; E. coil (ATCC 25966)
Procedure: as §1, §2

E. faecalis (ATCC 29122) [14] = experiment: Antibacterial viability (CFU) assay, IC50; type: cell-based; settings: Enterococcus faecalis, ATCC29122
Procedure: as §1, §2

[15] = test system: K. pneumonia (ATCC 700603); experiment: Antibacterial viability (CFU) assay, IC50; type: cell-based; settings: Klebsiella pneumoniae, ATCC700603
Procedure: as §1, §2

[16] = test system: P. aeruginosa (ATCC 27853); experiment: Antibacterial viability (CFU) assay, IC50; type: cell-based; settings: Pseudomonas aeruginosa, ATCC27853
Procedure: as §1, §2

S. aureus (ATCC 25923) [17] = experiment: Antibacterial viability (CFU) assay, IC50; type: cell-based; settings: Staphylococcus aureus, ATCC25923
Procedure: as §1, §2

S. enteric (ATCC 43972) = experiment: Antibacterial viability (CFU) assay, IC50; type: cell-based
Procedure: as §1, §2

[18] = test system: S. epidermidis (ATCC 14990); experiment: Antibacterial viability (CFU) assay, IC50; type: cell-based; settings: Staphylococcus epidermidis, ATCC14990
Procedure: as §1, §2

HCT-116 cells = experiment: Cell viability (cytotoxicity, LDH release) assay; type: cell-based; settings: Homo sapiens, 24 h; for viability at 100 µg/mL: read-out: percent of viable cells
Procedure: The synthesized compounds were also examined at four concentrations (10, 25, 50 and 100 µg/mL) for their cytotoxic effects on human colorectal cancer HCT-116 cells after their incubation together for 24 h.
Cytotoxic potency was examined for a human colon cancer cell line HCT-116 (American Type Culture Collection; Manassas, VA, USA) using various amounts of each compound (10, 25, 50 and 100 µg). Samples were diluted in Dulbecco’s Modified Eagle’s Medium, consisting of 10% Fetal Bovine Serum, and added to cells grown and cultured for 24 h in a 5% CO2-humidified incubator at 37 °C. Then, the activity of lactate dehydrogenase released from damaged cells was determined in the collected supernatant aliquots using an ELISA endpoint assay (Benchmark Plus, Bio-Rad, Hercules, CA, USA). As positive and negative controls, respectively, 0.1% Triton X-100 in the assay medium and the assay medium only were used. Cell viability, shown as mean values ± SDs (n = 3), was expressed as a relative percentage of the OD values determined at 600 nm in compound-treated cells and the control.

[19] = Bacillus subtilis, ATCC6633, B. subtilis (ATCC 6633)

Structure (SMILES) | IC50 [1] | DPPH Radical Scavenging Effenciency (%) at 1 mg/mL [1] | EC50 [2] | IZ (mm) (B. cereus (ATCC 14579) [3]) | IZ (mm) (B. subtilis (ATCC 6633) [4]) | IZ (mm) (E. coli (ATCC 25966) [5]) | IZ (mm) (E. faecalis (ATCC 29122) [6]) | IZ (mm) [7] | IZ (mm) [8] | IZ (mm) (S. aureus (ATCC 25923) [9]) | IZ (mm) [10] | IC50 (B. cereus (ATCC 14579) [11]) | IC50 (B. subtilis (ATCC 6633) [12]; [19]) | IC50 (E. coli (ATCC 25966) [13]) | IC50 (E. faecalis (ATCC 29122) [14]) | IC50 [15] | IC50 [16] | IC50 (S. aureus (ATCC 25923) [17]) | IC50 (S. enteric (ATCC 43972); read-out: IC50) | IC50 [18] | further results
CCOC(=O)C1=C(C)OC(N)=C(C#N)C1c1cccc(OC)c1[N+](=O)[O-] (centres unmarked) [4b, 6-Amino-5-cyano-4-(3-methoxy-2-nitro-phenyl)-2-methyl-4H-pyran-3-carboxylic acid ethyl ester] | 2.56 ± 0.117 mM | 23.25 ± 1.06% | 1200 ± 79 µM | 16.50 ± 0.71 mm | 19.50 ± 0.71 mm | 2.5 ± 0.71 mm | 15.50 ± 0.71 mm | 1.5 ± 0.7 mm | 2.5 ± 0.7 mm | 20.50 ± 0.71 mm | 23.50 mm and 23.50 ± 0.71 mm | 43.1 ± 1.98 µM | 49.1 ± 1.39 µM | 100 ± 3.9 µM | 56.8 ± 1.59 µM | 99.1 ± 2.5 µM | 84 ± 5.01 µM | 50.2 ± 1.39 µM | 118 ± 3.34 µM | 32.4 ± 1.39 µM | viability at 100 µg/mL (HCT-116 cells): 11 to 32.5%; IC50 (HCT-116 cells; read-out: Mean IC50 (µM) of cytotoxicity): 102 ± 8.83 µM; IC50 (HCT-116 cells; read-out: Mean IC50 (µg/mL) of cytotoxicity): 36.5 ± 3.18 µg/mL; melting point: 220 to 222 °C
CCOC(=O)C1=C(C)OC(N)=C(C#N)C1c1cccc(O)c1Cl (centres unmarked) [4g, 6-Amino-4-(2-chloro-3-hydroxy-phenyl)-5-cyano-2-methyl-4H-pyran-3-carboxylic acid ethyl ester] | 0.329 ± 0.042 mM | 90.50% and 90.50 ± 2.12% | 72 ± 4 µM | 29.00 mm and 29.00 ± 1.41 mm | 28.00 mm and 28.00 ± 1.41 mm | 11.0 ± 1.41 mm | 24.50 mm and 24.50 ± 0.71 mm | 11.5 ± 0.7 mm | 13.5 ± 0.7 mm | 27.50 mm and 27.50 ± 0.71 mm | 29.75 mm and 29.75 ± 0.35 mm | 29.4 ± 1.49 µM | 25.7 ± 1.7 µM | 61.8 ± 5.38 µM | 31.8 ± 1.49 µM | 61.8 ± 2.99 µM | 54.1 ± 4.48 µM | 27.8 ± 1.25 µM | 53 ± 3.29 µM | 30.3 ± 1.49 µM | IC50 (S. enteric (ATCC 43972)): 54.1 µM; viability at 100 µg/mL (HCT-116 cells): 86%; melting point: 212 to 213 °C
COc1ccc(C2C(C#N)=C(N)OC(C)=C2C(=O)OCc2ccccc2)cc1 (centres unmarked) [4j, 6-Amino-5-cyano-4-(4-methoxy-phenyl)-2-methyl-4H-pyran-3-carboxylic acid benzyl ester] | 0.194 mM | 88.00% and 88.00 ± 1.41% | 74 ± 4 µM | 24.50 mm and 24.50 ± 0.71 mm | 21.50 mm and 21.50 ± 0.71 mm | 10.5 ± 0.71 mm | 23.20 mm and 23.20 ± 0.57 mm | 12.0 ± 1.4 mm | 14.5 ± 0.7 mm | 25.25 mm and 25.25 ± 1.06 mm | 26.65 mm and 26.65 ± 0.92 mm | 27.6 ± 1.51 µM | 23.6 to 36.8 µM | 57.1 ± 0.8 µM | 28.2 ± 1.51 µM | 48.4 ± 3.99 µM | 49.7 ± 4.78 µM | 33.3 ± 1.7 µM | 51.8 ± 2.92 µM | 33.3 ± 1.7 µM | IC50 (B. subtilis (ATCC 6633) [12]; B. subtilis (ATCC 6633)): 23.6 ± 0.37 µM; IC50 (S. enteric (ATCC 43972)): 49.7 µM; viability at 100 µg/mL (HCT-116 cells): 94%; melting point: 170 to 172 °C
Cc1cc(C(C)(C)C)c(O)c(C(C)(C)C)c1 [BHT, butylated hydroxytoluene, reference compound] | 0.245 ± 0.027 mM | 95.30% and 95.30 ± 0.42% | 89 ± 3 µM | – | – | – | – | – | – | – | – | – | – | – | – | – | – | – | – | – | –
